Patent publication US8410045B2, “Camptothecin-peptide conjugates and pharmaceutical compositions containing the same” (Drais Pharmaceuticals, Inc., priority 2006, dated 2013)
“Also recorded” adds a separate entry of the source. Where a name gives a salt, the structure may show the parent alone. Marks after values point to notes of the source that are not given here.

Assays:
[1] = In vitro cytotoxicity (WST-1 cell viability); format: cell-based, human; conditions: 1 h exposure + 48 h post-incubation; read-out: In vitro cytotoxicity IC50 (μM) NCI-H460
Protocol: Cytotoxic evaluation was performed by seeded cells for 24 h prior to the addition of the therapeutic compound. Cells were incubated for 48 h (37° C.) with different dilutions of the therapeutic compound. Cell viability was then assessed using the WST-1 assay (Roche). The results are expressed as mean cytotoxic concentrations (IC50 value or molar concentration that inhibits 50% of cell viability) that were estimated from sigmoid regression, using Graph Pad Prism 3.02 software.
NCI-H460 (ATCC#: HTB-177): human epithelial lung carcinoma cells. Cells were cultured in RPMI 1640+glutamax and 10% of fetal bovine serum. Cells were plated at a density of 10,000 cells/well in 96-well plates.

NCI-H460 lung carcinoma = assay: Antitumor efficacy in NCI-H460 lung carcinoma model in nude mice; conditions: Table 9, 25 μmol/kg
[2] = M. Horikawa, Pharmaceutical Res. 2002; cited from earlier work
physchem = conditions: water
[3] = system: HCT 116 human colorectal carcinoma tumor
[4] = Toxicity study in the beagle dog following intravenous infusion; conditions: dog, 30 mg/kg
Protocol: Adult female and male beagle dogs were individually housed with free access to tap water. A pellet diet was distributed daily.
Dogs (1 dog for each drug and dose) were infused intravenously through the cephalic or saphenous vein. These intravenous infusions were made using a single-use catheter (Intraflon®) and a plastic syringe connected to a syringe pump. During the injection, the animals were restrained in a hammock.
Conjugates were dissolved in water for injection (10% of final volume) and diluted with 0.9% NaCl to their final concentration. The volume administered to each animal was adjusted according to body weight.
Clinical signs, hematological and intestinal toxicities were monitored during a period of 15 days after infusion. Each animal was checked at least twice a day for mortality or signs of morbidity.
The body weight of each animal was recorded on the day −1, 4, 10 and 13.
Peripheral blood samples were taken into EDTA tubes for the determination of following parameters on days −1, 5, 11 and 14: erythrocytes, hemoglobin, mean cell volume, packed cell volume, mean cell hemoglobin concentration, mean cell hemoglobin, thrombocytes, leucocytes, differential white cell count with cell morphology.

[5] = dog; F. Lavelle et al., Seminar in Oncology (1996); cited from earlier work

| SMILES | IC50 [1] | In vivo efficacy Optimal T/C % (NCI-H460 lung carcinoma) | In vivo efficacy TGI % (NCI-H460 lung carcinoma) | In vivo efficacy Optimal T/C % (NCI-H460 lung carcinoma; listed as DPV1047-BCH-SN38.HCl) | excreted into bile [2] | solubility (physchem) | TGI (100-T/C %) ([3]; Table 5, Q1D5, 18 (cumulative 90) μmol/kg) | Minimal T/C (%) ([3]; iv) | body weight loss ([4]; 20 min infusion) | white blood cells depletion ([4]; Day 5) | Reduction in WBC at D5 (%) ([4]; i.v. infusion) | Toxic signs Day 1 ([4]; i.v. infusion) | Toxic signs Following Days ([4]; i.v. infusion) | Maximal Tolerated Dose (MTD) [5] |
| --- | --- | --- | --- | --- | --- | --- | --- | --- | --- | --- | --- | --- | --- | --- |
| CCc1c2c(nc3ccc(OC(=O)[C@H]4CC[C@H](CNC(=O)C5CCC(CN6C(=O)CC(SC[C@H](N)C(=O)N[C@H](C(=O)N[C@@H](CCCCN)C(=O)N[C@@H](CCCNC(=N)N)C(=O)NCC(=O)N[C@@H](CC(C)C)C(=O)N[C@@H](CCCCN)C(=O)N[C@@H](CC(C)C)C(=O)N[C@@H](CCCNC(=N)N)C(=O)N[C@@H](Cc7c[nH]cn7)C(=O)N[C@H](C(=O)N[C@@H](CCCNC(=N)N)C(=O)N7CCC[C@H]7C(=O)N[C@@H](CCCNC(=N)N)C(=O)N[C@H](C(=O)N[C@H](C(=O)N[C@@H](CCCNC(=N)N)C(=O)N[C@@H](CCSC)C(=O)N[C@@H](CC(=O)O)C(=O)N[C@H](C(=O)O)C(C)C)[C@@H](C)O)C(C)C)C(C)C)C(C)C)C6=O)CC5)CC4)cc13)-c1cc3c(c(=O)n1C2)COC(=O)[C@]3(O)CC (single isomer, unassigned) [DPV1047-BCH-SN38•HCl] | 173 µM | 22.9% | 77.1% | 18.4% |  |  |  |  |  |  |  |  |  |  |
| CCc1c2c(nc3ccc(OC(=O)N4CCC(N5CCCCC5)CC4)cc13)-c1cc3c(c(=O)n1C2)COC(=O)[C@]3(O)CC [irinotecan, reference compound] |  |  |  |  | > 26% | ≤ 2500 µg/mL | 90*** % | 10% | −8.5% | 92% | −92% | Ptyalism; also recorded: Liquid feces; also recorded: Vomit; also recorded: Loss of balance; also recorded: Tremors (marked) | Vomit: D4 | 30 mg/kg |
